Test results: patent US20230146675A1, “PYRIMIDO[5,4-d]PYRIMIDINE DERIVATIVES AS ENT INHIBITORS FOR THE TREATMENT OF CANCERS, AND COMBINATION THEREOF WITH ADENOSINE RECEPTOR ANTAGONISTS” (ITEOS BELGIUM SA, priority 2020, published 2023)

Target: T1, human ENT1 (Homo sapiens, UniProt Q99808)
T1 sequence (Q99808 1-456): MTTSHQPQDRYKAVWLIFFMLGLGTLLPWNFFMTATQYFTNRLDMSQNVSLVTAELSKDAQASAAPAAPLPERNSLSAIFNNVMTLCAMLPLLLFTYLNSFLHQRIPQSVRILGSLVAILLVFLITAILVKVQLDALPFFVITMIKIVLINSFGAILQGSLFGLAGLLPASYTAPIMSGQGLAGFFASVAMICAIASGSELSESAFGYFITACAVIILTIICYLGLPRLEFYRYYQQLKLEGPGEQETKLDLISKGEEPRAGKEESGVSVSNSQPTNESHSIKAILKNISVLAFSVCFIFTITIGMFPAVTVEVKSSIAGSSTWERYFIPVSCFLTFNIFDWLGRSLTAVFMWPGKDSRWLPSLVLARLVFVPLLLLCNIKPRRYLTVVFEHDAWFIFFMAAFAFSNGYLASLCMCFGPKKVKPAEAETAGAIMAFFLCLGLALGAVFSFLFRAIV
Assay: ENT1 binding assay (competition with Sahenta-DY647 on JAR cells)
Set-up: JAR cells expressing ENT1 were bought from ATCC; host or cells: JAR cells
Details: binned IC50
How it was run: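 JAR cells were incubated with test compounds and the fluorescent ligand Sahenta-DY647 in competition. Plates were washed twice by centrifugation (4 min, 400 rcf, 4 °C). Binding potency was derived from the final fluorescence.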

Row | IC50 | Compound
1 | 100 to 500 nM | COCCN(CCOC)c1nc(N2CCn3nncc3C2)c2nc(N(CCOC)CCOC)nc(N3CCN(C)C(=O)C3)c2n1 [Compound 251, 4-(2,6-bis(bis(2-methoxyethyl)amino)-8-(6,7-dihydro-[1,2,3]triazolo[1,5-a]pyrazin-5(4H)-yl)pyrimido[5,4-d]pyrimidin-4-yl)-1-methylpiperazin-2-one]
2 | < 100 nM | COCCN(CCOC)c1nc(N2CCC(OC)CC2)c2nc(N(CCOC)CCOC)nc(NCc3ccc(Cl)c(Cl)c3)c2n1 [Compound 137, N4-(3,4-dichlorobenzyl)-N2,N2,N6,N6-tetrakis(2-methoxyethyl)-8-(4-methoxypiperidin-1-yl)pyrimido[5,4-d]pyrimidine-2,4,6-triamine]
3 | 100 to 500 nM | CCN(CCN1CCCC1)c1nc(N2CCN(C)C(=O)C2)c2nc(N(CCOC)Cc3cc(OC)c(OC)c(OC)c3)nc(N3CCC(OC)CC3)c2n1 [Compound 300, 4-(2-(ethyl(2-(pyrrolidin-1-yl)ethyl)amino)-6-((2-methoxyethyl)(3,4,5-trimethoxybenzyl)amino)-8-(4-methoxypiperidin-1-yl)pyrimido[5,4-d]pyrimidin-4-yl)-1-methylpiperazin-2-one]
4 | 100 to 500 nM | COCCN(CCOC)c1nc(N2CCN(C)C(=O)C2)c2nc(N(CCOC)CCOC)nc(NCc3cccc(C(N)=O)c3)c2n1 [Compound 203, 3-(((2,6-bis(bis(2-methoxyethyl)amino)-8-(4-methyl-3-oxopiperazin-1-yl)pyrimido[5,4-d]pyrimidin-4-yl)amino)methyl)benzamide]
5 | 100 to 500 nM | COCCN(CCOC)c1nc(N2CCOC(C)C2)c2nc(N(CCOC)CCOC)nc(N3CCC(OC)CC3)c2n1 (centres unmarked) [Compound 113, N2,N2,N6,N6-tetrakis(2-methoxyethyl)-4-(4-methoxypiperidin-1-yl)-8-(2-methylmorpholino)pyrimido[5,4-d]pyrimidine-2,6-diamine]
6 | 500 to 1000 nM | COCCN(CCOC)c1nc(N2CCC(OC)CC2)c2nc(N(CCOC)CCOC)nc(NCc3cnn(C)c3)c2n1 [Compound 65, N2,N2,N6,N6-tetrakis(2-methoxyethyl)-8-(4-methoxypiperidin-1-yl)-N4-((1-methyl-1H-pyrazol-4-yl)methyl)pyrimido[5,4-d]pyrimidine-2,4,6-triamine]
7 | 500 to 1000 nM | COCCN(CCOC)c1nc(N2CCC(OC)CC2)c2nc(NCCn3cccn3)nc(N3CCC(OC)CC3)c2n1 [Compound 32, N2-(2-(1H-pyrazol-1-yl)ethyl)-N6,N6-bis(2-methoxyethyl)-4,8-bis(4-methoxypiperidin-1-yl)pyrimido[5,4-d]pyrimidine-2,6-diamine]
8 | 500 to 1000 nM | COCCN(CCOC)c1nc(N2CCC(OC)CC2)c2nc(N(CCOC)CCOCCCN3CCN(C)CC3)nc(N3CCC(OC)CC3)c2n1 [Compound 16, N2,N2,N6-tris(2-methoxyethyl)-4,8-bis(4-methoxypiperidin-1-yl)-N6-(2-(3-(4-methylpiperazin-1-yl)propoxy)ethyl)pyrimido[5,4-d]pyrimidine-2,6-diamine]
9 | 100 to 500 nM | COCCN(CCOC)c1nc(N2CCC(OC)CC2)c2nc(N(CCOC)CCOC)nc(NCc3ccc(OC)cc3)c2n1 [Compound 47, N4-(4-methoxybenzyl)-N2,N2,N6,N6-tetrakis(2-methoxyethyl)-8-(4-methoxypiperidin-1-yl)pyrimido[5,4-d]pyrimidine-2,4,6-triamine]
10 | < 100 nM | COCCN(CCOC)c1nc(N2CCS(=O)(=O)CC2)c2nc(N(CCOC)CCOC)nc(NCc3ccccc3)c2n1 [Compound 7]
11 | < 100 nM | COCCN(Cc1ccc(OC)c(OC)c1OC)c1nc(N2CCN(C)C(=O)C2)c2nc(N(CCOC)CCOC)nc(N3CCC(OC)CC3)c2n1 [Compound 302, 4-(6-(bis(2-methoxyethyl)amino)-2-((2-methoxyethyl)(2,3,4-trimethoxybenzyl)amino)-8-(4-methoxypiperidin-1-yl)pyrimido[5,4-d]pyrimidin-4-yl)-1-methylpiperazin-2-one]
